Assay results taken from patent publication US8598344B2, “CDKI pathway inhibitors and uses thereof” (Senex Biotechnology, priority 2009, dated 2013).
Where two headings read alike, the source gives them in different places.

What was measured:
[1] = test system: induction of transcription by p21 (CDKI pathway, CMV promoter-GFP) in HT1080 fibrosarcoma cells; test: Cellular assay for CDKI pathway inhibition: CMV-GFP induction by IPTG-inducible p21 in HT1080 reporter cells; type: cell-based, human
Experimental: Briefly, the reporter cell line described in the above-referenced application, which carries IPTG (isopropyl-β-thio-galactoside)-inducible p21 gene together with a p21-inducible promoter driving the expression of Green Fluorescent Protein (GFP) was plated in 96-well plates, at 2000 cells per well for the no-IPTG arm of the assay and at 5000 cells per well for the IPTG arm of the assay. To induce the maximal levels of p21, IPTG was added to 50 μM concentration. Serial 2-fold dilutions of the tested compounds were added in quadruplicates to wells with and without IPTG, ˜10 min after IPTG addition.
This assay is based on the induction of green fluorescent protein (GFP) expression from the cytomegalovirus (CMV) promoter in human HT1080 fibrosarcoma cells that express CDKI p21 from an isopropyl-(3-thio-galactoside (IPTG)-inducible promoter. The compound activity as a CDKI pathway inhibitor is measured by its ability to prevent the stimulation of the CMV promoter upon the addition of p21-inducing IPTG. CMV promoter activity is measured by the ratio of GFP fluorescence to the relative cell number, as determined by staining cellular DNA with Hoechst 33342. This assay was conducted in two modes. […]

HIPK2 = target: T1, HIPK2 (Homo sapiens, UniProt Q9H2X6); test: KinomeScan competition binding assay; details: 10 μM compound
T1 construct: purchased KinomeScan, a division of Ambit Biosciences
Description: (§1) This similarity led us to test SNX14 for the ability to inhibit 285 kinases, using the services of KinaseProfiler of Millipore Corporation (285 kinases). […] The KINOMEscan assay has been described in detail in Fabian et al., Nat. Biotechnol. 23: 329 (2005) and Karaman et al., Nat. Biotechnol. 26: 127 (2008).
(§2) The KinomeScan assay is based on a competition binding assay that quantitatively measures the ability of a compound to compete with an immobilized, ATP site directed ligand. The assay is performed by combining three components: DNA-tagged kinase; immobilized ligand; and a test compound. The ability of the test compound to compete with the immobilized ligand is measured via quantitative PCR of the DNA tag. […] The CDKs tested by Millipore for inhibition with SNX14 included CDK1, CDK2, CDK3, CDK5, CDK7 and CDK9; none of these were inhibited to less than 49 percent of control (POC) activity. The CDKs tested by KinomeScan for the effect of Compound 1 included CDK2, CDK3, CDK4, CDK5, CDK7, CDK8, CDK9 and CDK19; aside from CDK8 and CDK19, the strongest inhibited CDK was CDK7 (33% POC binding). To determine the inhibition of which kinases correlates with the biological activity of SNX2-class compounds, we tested eight additional compounds of the SNX2 family, which gave different IC50 values in the cellular assays, for the ability to affect 24 kinases that were most susceptible to compound 1, through the services of KinomeScan. […] We have also determined the binding constant (Kd) for SNX14, compound 1, compound 20, compound 26, compound 43 and compound 14 in kinase assays for CDK8 and CDK19 (Table 1).

CLK1 = target: T2, CLK1 (Homo sapiens, UniProt P49759); test: KinomeScan competition binding assay; details: 10 μM compound
T2 construct: purchased KinomeScan, a division of Ambit Biosciences
Description: as §1, §2

SLK = target: T3, SLK (Homo sapiens, UniProt Q9H2G2); test: KinomeScan competition binding assay; details: 10 μM compound
T3 construct: purchased KinomeScan, a division of Ambit Biosciences
Description: as §1, §2

MEK3 = target: T4, MEK3 (Homo sapiens, UniProt P46734); test: KinomeScan competition binding assay; details: 10 μM compound
T4 construct: purchased KinomeScan, a division of Ambit Biosciences
T4 sequence (P46734 1-347): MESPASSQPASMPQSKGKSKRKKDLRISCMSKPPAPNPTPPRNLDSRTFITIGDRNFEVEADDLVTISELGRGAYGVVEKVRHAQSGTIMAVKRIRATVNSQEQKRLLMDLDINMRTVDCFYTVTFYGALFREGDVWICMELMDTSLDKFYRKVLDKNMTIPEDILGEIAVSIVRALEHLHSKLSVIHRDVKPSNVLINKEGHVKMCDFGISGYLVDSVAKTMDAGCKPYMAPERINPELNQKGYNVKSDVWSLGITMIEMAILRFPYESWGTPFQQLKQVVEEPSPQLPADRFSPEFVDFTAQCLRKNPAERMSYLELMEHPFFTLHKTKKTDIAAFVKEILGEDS
Description: as §1, §2

CDK8 = target: T5, CDK8 (Homo sapiens, UniProt P49336); test: KinomeScan competition binding assay; details: for POC ligand binding, CDK8: 10 μM compound; for Kd: read-out: CDK8 inhibition (Kd)
T5 construct: purchased KinomeScan, a division of Ambit Biosciences
Description: as §1, §2

HIPK3 = target: T6, HIPK3 (Homo sapiens, UniProt Q9H422); test: KinomeScan competition binding assay; details: 10 μM compound
T6 construct: purchased KinomeScan, a division of Ambit Biosciences
Description: as §1, §2

STK16 = target: T7, STK16 (Homo sapiens, UniProt O75716); test: KinomeScan competition binding assay; details: 10 μM compound
T7 construct: purchased KinomeScan, a division of Ambit Biosciences
Description: as §1, §2

CLK4 = target: T8, CLK4 (Homo sapiens, UniProt Q9HAZ1); test: KinomeScan competition binding assay; details: 10 μM compound
T8 construct: purchased KinomeScan, a division of Ambit Biosciences
Description: as §1, §2

PIK3CA (I800L) = target: T9, PIK3CA (I800L) (Homo sapiens, UniProt P42336, I800L); test: KinomeScan competition binding assay; details: 10 μM compound
T9 construct: purchased KinomeScan, a division of Ambit Biosciences
Description: as §1, §2

IRAK1 = target: T10, IRAK1 (Homo sapiens, UniProt P51617); test: KinomeScan competition binding assay; details: 10 μM compound
T10 construct: purchased KinomeScan, a division of Ambit Biosciences
Description: as §1, §2

CSNK1G3 = target: T11, CSNK1G3 (Homo sapiens, UniProt Q9Y6M4); test: KinomeScan competition binding assay; details: 10 μM compound
T11 construct: purchased KinomeScan, a division of Ambit Biosciences
Description: as §1, §2

CLK2 = target: T12, CLK2 (Homo sapiens, UniProt P49760); test: KinomeScan competition binding assay; details: 10 μM compound
T12 construct: purchased KinomeScan, a division of Ambit Biosciences
Description: as §1, §2

MAPKAPK5 = target: T13, MAPKAPK5 (Homo sapiens, UniProt Q8IW41); test: KinomeScan competition binding assay; details: 10 μM compound
T13 construct: purchased KinomeScan, a division of Ambit Biosciences
T13 sequence (Q8IW41 1-473): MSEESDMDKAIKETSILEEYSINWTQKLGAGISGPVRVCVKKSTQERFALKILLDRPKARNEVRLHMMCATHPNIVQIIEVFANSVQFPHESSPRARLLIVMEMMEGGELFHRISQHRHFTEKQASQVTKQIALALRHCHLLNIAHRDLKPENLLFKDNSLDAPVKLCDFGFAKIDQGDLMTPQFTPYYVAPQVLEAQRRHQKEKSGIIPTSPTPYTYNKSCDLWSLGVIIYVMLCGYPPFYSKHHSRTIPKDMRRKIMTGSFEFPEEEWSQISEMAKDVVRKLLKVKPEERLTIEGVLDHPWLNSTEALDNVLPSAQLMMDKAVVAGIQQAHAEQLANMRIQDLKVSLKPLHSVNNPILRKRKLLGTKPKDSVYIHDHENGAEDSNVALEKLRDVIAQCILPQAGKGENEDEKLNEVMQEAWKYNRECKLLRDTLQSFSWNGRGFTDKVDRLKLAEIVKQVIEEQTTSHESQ
Description: as §1, §2

[2] = Table 2, calculated assuming maximal effect = zero GFP/Hoechst, no unit in table, μM from FIG. 8 legend, no activity at 40 μM given as >100, read-out: IC50 in the cellular assay
[3] = Table 1, IC50 calculated on the basis of the maximal inhibition produced by the highest doses, IPTG mode (50 μM or 2 μM) not stated, read-out: Cell-based assay (IC50)

T7 sequence (O75716 whole entry): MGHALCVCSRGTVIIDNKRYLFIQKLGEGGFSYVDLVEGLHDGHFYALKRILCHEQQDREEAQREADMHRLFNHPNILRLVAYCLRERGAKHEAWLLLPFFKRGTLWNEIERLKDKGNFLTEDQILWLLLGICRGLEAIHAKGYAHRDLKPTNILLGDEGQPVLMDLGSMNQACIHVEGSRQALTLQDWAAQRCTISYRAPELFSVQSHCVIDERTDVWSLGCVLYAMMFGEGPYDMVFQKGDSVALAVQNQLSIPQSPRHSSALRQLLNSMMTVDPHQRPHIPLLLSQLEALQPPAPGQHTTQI
T1 sequence (Q9H2X6 whole entry): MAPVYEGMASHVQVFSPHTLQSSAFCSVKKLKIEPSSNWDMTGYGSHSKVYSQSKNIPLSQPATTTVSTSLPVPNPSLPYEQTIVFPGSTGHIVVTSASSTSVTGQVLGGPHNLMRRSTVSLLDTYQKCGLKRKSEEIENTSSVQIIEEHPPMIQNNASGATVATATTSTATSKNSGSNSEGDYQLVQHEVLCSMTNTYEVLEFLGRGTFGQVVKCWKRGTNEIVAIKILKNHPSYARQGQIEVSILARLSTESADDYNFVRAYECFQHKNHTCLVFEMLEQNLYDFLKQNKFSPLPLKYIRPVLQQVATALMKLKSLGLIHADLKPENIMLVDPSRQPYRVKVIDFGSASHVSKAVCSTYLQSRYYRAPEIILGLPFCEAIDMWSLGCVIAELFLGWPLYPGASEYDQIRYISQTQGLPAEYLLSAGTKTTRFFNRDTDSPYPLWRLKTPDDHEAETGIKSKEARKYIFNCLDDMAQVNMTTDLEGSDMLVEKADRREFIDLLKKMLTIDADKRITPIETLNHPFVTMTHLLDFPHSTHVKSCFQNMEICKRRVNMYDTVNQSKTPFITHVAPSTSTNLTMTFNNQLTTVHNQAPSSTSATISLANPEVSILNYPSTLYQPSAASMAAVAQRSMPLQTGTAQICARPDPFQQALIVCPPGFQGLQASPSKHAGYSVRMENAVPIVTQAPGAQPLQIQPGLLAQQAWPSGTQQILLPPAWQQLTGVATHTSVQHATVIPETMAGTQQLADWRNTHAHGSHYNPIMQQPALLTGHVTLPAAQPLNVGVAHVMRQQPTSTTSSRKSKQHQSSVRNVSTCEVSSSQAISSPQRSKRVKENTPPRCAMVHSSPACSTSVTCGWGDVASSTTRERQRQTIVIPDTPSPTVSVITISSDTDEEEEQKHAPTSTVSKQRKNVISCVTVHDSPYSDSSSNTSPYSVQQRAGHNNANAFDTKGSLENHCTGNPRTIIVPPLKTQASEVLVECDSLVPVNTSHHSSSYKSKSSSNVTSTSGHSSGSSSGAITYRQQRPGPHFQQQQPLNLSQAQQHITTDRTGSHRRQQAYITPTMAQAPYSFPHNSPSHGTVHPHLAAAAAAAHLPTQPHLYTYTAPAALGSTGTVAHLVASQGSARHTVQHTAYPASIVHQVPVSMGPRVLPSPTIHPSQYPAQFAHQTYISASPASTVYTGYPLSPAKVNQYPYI
T3 sequence (Q9H2G2 whole entry): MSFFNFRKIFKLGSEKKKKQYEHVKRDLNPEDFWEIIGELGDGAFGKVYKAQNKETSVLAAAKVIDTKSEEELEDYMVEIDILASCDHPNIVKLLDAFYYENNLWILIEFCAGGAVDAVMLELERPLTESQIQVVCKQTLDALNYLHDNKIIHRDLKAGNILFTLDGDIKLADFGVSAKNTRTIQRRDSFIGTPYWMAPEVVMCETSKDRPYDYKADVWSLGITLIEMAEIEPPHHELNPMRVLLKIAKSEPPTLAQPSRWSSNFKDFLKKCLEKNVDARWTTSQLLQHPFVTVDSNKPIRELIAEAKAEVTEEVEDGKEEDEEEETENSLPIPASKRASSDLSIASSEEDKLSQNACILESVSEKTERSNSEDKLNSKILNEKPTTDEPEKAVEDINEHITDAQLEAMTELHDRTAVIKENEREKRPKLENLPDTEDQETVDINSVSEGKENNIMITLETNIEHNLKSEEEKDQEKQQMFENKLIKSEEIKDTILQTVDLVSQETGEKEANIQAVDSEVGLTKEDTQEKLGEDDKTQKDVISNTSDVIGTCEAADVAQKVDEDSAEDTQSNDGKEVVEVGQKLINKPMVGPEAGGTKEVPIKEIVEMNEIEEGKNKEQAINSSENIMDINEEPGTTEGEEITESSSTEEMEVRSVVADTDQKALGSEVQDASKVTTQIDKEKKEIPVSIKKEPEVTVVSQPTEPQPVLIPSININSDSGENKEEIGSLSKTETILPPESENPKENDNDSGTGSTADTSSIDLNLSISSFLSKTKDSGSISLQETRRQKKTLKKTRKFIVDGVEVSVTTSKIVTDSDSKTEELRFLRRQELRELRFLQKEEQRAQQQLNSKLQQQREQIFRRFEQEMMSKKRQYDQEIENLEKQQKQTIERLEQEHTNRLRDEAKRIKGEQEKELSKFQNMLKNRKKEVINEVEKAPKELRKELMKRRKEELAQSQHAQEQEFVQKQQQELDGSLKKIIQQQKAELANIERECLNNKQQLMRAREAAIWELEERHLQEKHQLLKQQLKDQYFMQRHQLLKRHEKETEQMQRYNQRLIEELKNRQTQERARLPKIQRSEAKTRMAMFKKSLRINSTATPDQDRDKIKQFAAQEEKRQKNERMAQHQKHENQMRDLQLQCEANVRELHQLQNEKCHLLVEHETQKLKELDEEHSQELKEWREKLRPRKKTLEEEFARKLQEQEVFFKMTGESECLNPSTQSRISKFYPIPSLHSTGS
T10 sequence (P51617 whole entry): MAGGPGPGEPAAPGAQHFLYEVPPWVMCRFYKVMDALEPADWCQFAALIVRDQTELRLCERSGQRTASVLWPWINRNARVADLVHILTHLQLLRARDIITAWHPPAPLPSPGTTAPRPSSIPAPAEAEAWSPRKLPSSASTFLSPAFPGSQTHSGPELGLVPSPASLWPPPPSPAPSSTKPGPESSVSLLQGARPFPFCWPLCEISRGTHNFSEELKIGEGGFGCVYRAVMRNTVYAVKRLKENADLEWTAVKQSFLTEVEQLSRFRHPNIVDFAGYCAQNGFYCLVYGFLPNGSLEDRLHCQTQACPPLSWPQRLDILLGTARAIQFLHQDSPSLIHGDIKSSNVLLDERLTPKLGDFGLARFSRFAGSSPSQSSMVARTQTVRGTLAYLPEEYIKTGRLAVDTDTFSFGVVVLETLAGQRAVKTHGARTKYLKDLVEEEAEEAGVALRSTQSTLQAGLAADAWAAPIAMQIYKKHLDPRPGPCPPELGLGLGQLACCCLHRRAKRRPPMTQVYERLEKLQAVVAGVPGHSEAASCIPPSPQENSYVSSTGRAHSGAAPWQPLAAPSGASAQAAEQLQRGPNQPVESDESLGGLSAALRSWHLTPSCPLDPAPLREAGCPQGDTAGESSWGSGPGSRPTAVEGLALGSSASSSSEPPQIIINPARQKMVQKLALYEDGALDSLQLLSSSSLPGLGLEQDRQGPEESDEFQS
T6 sequence (Q9H422 whole entry): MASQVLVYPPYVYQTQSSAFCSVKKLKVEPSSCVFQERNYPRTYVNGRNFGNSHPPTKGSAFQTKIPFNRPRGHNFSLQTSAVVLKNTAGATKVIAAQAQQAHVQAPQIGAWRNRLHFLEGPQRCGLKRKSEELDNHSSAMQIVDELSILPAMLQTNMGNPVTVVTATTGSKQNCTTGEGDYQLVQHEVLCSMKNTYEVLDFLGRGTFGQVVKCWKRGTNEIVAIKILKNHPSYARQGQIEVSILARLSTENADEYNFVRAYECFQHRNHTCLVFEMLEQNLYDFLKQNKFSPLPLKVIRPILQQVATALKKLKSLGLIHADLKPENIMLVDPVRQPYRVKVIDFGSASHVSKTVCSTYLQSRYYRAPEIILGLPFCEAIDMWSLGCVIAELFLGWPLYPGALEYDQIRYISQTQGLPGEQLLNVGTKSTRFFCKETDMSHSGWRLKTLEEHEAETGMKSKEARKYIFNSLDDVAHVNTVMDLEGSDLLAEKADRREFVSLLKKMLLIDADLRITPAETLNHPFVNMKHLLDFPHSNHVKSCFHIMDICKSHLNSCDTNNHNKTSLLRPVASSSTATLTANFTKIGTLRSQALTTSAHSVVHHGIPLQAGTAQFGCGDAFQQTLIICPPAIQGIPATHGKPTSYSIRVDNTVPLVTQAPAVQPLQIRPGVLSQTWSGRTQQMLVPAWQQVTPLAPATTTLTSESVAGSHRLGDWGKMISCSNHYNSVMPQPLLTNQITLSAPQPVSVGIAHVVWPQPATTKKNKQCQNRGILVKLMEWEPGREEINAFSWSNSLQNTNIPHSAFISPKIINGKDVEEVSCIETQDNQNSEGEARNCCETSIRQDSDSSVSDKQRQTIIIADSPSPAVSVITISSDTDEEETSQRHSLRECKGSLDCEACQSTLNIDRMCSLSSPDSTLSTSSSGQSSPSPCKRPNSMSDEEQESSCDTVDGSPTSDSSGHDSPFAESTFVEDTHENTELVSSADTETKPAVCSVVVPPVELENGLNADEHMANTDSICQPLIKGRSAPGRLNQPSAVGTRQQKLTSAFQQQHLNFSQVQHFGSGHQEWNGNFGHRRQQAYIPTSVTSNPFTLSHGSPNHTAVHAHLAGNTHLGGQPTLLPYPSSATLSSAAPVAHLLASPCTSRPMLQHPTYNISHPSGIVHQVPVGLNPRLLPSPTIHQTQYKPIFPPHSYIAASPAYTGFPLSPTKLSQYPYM

| Structure (SMILES) | IC50 [1, 2] [µM] | POC ligand binding, HIPK2 (HIPK2) [POC] | POC ligand binding, CLK1 (CLK1) [POC] | POC ligand binding, SLK (SLK) [POC] | POC ligand binding, MEK3 (MEK3) [POC] | POC ligand binding, CDK8 (CDK8) [POC] | POC ligand binding, HIPK3 (HIPK3) [POC] | POC ligand binding, STK16 (STK16) [POC] | POC ligand binding, CLK4 (CLK4) [POC] | POC ligand binding, PIK3CA (I800L) (PIK3CA (I800L)) [POC] | POC ligand binding, IRAK1 (IRAK1) [POC] | POC ligand binding, CSNK1G3 (CSNK1G3) [POC] | POC ligand binding, CLK2 (CLK2) [POC] | POC ligand binding, MAPKAPK5 (MAPKAPK5) [POC] | IC50 [1, 3] [µM] | POC ligand binding, HIPK2 (HIPK2; 10 µM) [POC] | POC ligand binding, CLK1 (CLK1; 10 µM) [POC] | POC ligand binding, SLK (SLK; 10 µM) [POC] | POC ligand binding, MEK3 (MEK3; 10 µM) [POC] | Kd (CDK8) [nM] | also measured |
| --- | --- | --- | --- | --- | --- | --- | --- | --- | --- | --- | --- | --- | --- | --- | --- | --- | --- | --- | --- | --- | --- |
| COc1ccc2ncnc(NCCc3ccccc3)c2c1 [compound 44] | 11 | 62 | 17 | 43 | 72 | 24 | 53 | 70 | 17 | 86 | 64 | 84 | 34 | 94 |  |  |  |  |  |  |  |
| N#Cc1ccc2ncnc(NCc3ccc4ccccc4c3)c2c1 [compound 14] | 1.2 |  |  |  |  |  |  |  |  |  |  |  |  |  | 2.54 | 34 | 18 | 90 | 29 | 2500 | POC ligand binding, CDK8 (CDK8; 10 µM): 0.4 POC; POC ligand binding, HIPK3 (HIPK3; 10 µM): 35 POC; POC ligand binding, STK16 (STK16; 10 µM): 2.4 POC; POC ligand binding, CLK4 (CLK4; 10 µM): 16 POC; POC ligand binding, PIK3CA (I800L) (PIK3CA (I800L); 10 µM): 62 POC; POC ligand binding, IRAK1 (IRAK1; 10 µM): 35 POC; POC ligand binding, CSNK1G3 (CSNK1G3; 10 µM): 52 POC; POC ligand binding, CLK2 (CLK2; 10 µM): 24 POC; POC ligand binding, MAPKAPK5 (MAPKAPK5; 10 µM): 100 POC |
| CC(C)CNc1ncnc2ccc(C(F)(F)F)cc12 [compound 45] | 12.8 | 20 | 8.4 | 59 | 71 | 37 | 28 | 17 | 7.8 | 83 | 25 | 50 | 8.6 | 100 |  |  |  |  |  |  |  |
| N#Cc1ccc2ncnc(NCc3ccc4ccccc4c3)c2c1 [compound 43] | 0.95 |  |  |  |  |  |  |  |  |  |  |  |  |  | 0.22 | 30 | 9 | 92 | 64 | 240 | POC ligand binding, CDK8 (CDK8; 10 µM): 1.6 POC; POC ligand binding, HIPK3 (HIPK3; 10 µM): 42 POC; POC ligand binding, STK16 (STK16; 10 µM): 30 POC; POC ligand binding, CLK4 (CLK4; 10 µM): 9.6 POC; POC ligand binding, PIK3CA (I800L) (PIK3CA (I800L); 10 µM): 87 POC; POC ligand binding, IRAK1 (IRAK1; 10 µM): 7.6 POC; POC ligand binding, CSNK1G3 (CSNK1G3; 10 µM): 54 POC; POC ligand binding, CLK2 (CLK2; 10 µM): 9.6 POC; POC ligand binding, MAPKAPK5 (MAPKAPK5; 10 µM): 85 POC |
| N#Cc1ccc2ncnc(NCCc3ccccc3)c2c1 [compound 1] | 1.3 | 18 | 4.2 | 11 | 18 |  | 18 | 4.2 | 8 | 17 | 8.2 | 16 | 3.8 | 15 | 0.641 |  |  |  |  | 830 | IC50 ([1]; read-out: IC50, p21 induced by 8 μM IPTG, 8 μM IPTG, 72 hours): 0.57 µM; inhibition of CDK8 (CDK8; 10 μM): > 99% |
| CCCNc1ncnc2ccc(N3CCOCC3)cc12 [compound 46] | > 100 | 30 | 48 | 88 | 100 | 100 | 34 | 80 | 24 | 83 | 81 | 100 | 66 | 91 |  |  |  |  |  |  |  |
